Experimental data published in PubChem BioAssay (NCI).
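How tested: cells in 96-well plates exposed to compound for 48 hours at five concentrations. The concentration for full growth arrest is given as TGI.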

What was measured:
Experiment in all cases: growth of human tumour cells (NCI), 48 h
HCT-15 colon = tested on: HCT-15 colon
RPMI-8226 leukemia = tested on: RPMI-8226 leukemia
A498 renal = tested on: A498 renal
K-562 leukemia = tested on: K-562 leukemia
UO-31 renal = tested on: UO-31 renal
EKVX NSCLC = tested on: EKVX NSCLC
NCI-H23 lung = tested on: NCI-H23 lung
COLO 205 colon = tested on: COLO 205 colon
SW-620 colon = tested on: SW-620 colon
M14 melanoma = tested on: M14 melanoma
MDA-MB-435 = tested on: MDA-MB-435
UACC-257 melanoma = tested on: UACC-257 melanoma
ACHN renal = tested on: ACHN renal
TK-10 renal = tested on: TK-10 renal
SK-MEL-2 melanoma = tested on: SK-MEL-2 melanoma
OVCAR-8 ovarian = tested on: OVCAR-8 ovarian
NCI-H522 lung = tested on: NCI-H522 lung
SK-MEL-5 melanoma = tested on: SK-MEL-5 melanoma
OVCAR-3 ovarian = tested on: OVCAR-3 ovarian
MALME-3M melanoma = tested on: MALME-3M melanoma
SNB-19 CNS = tested on: SNB-19 CNS
SN12C renal = tested on: SN12C renal
CAKI-1 renal = tested on: CAKI-1 renal
HL-60(TB) leukemia = tested on: HL-60(TB) leukemia
OVCAR-5 ovarian = tested on: OVCAR-5 ovarian
HCT-116 colon = tested on: HCT-116 colon
A549 NSCLC = tested on: A549 NSCLC
KM12 colon = tested on: KM12 colon
SF-295 CNS = tested on: SF-295 CNS
DU-145 prostate = tested on: DU-145 prostate
OVCAR-4 ovarian = tested on: OVCAR-4 ovarian
HT29 colon = tested on: HT29 colon
LOX IMVI melanoma = tested on: LOX IMVI melanoma
CCRF-CEM leukemia = tested on: CCRF-CEM leukemia
SK-MEL-28 melanoma = tested on: SK-MEL-28 melanoma
MCF7 breast = tested on: MCF7 breast
U251 CNS = tested on: U251 CNS
MOLT-4 leukemia = tested on: MOLT-4 leukemia
PC-3 prostate = tested on: PC-3 prostate
RXF 393 renal = tested on: RXF 393 renal
NCI-H226 lung = tested on: NCI-H226 lung
NCI-H460 lung = tested on: NCI-H460 lung
SF-539 CNS = tested on: SF-539 CNS
SR leukemia = tested on: SR leukemia
SK-OV-3 ovarian = tested on: SK-OV-3 ovarian
IGROV1 ovarian = tested on: IGROV1 ovarian
BT-549 breast = tested on: BT-549 breast
UACC-62 melanoma = tested on: UACC-62 melanoma
MDA-N = tested on: MDA-N
SNB-75 CNS = tested on: SNB-75 CNS
MDA-MB-231 breast = tested on: MDA-MB-231 breast
NCI/ADR-RES ovarian = tested on: NCI/ADR-RES ovarian
SF-268 CNS = tested on: SF-268 CNS
HOP-92 NSCLC = tested on: HOP-92 NSCLC
HOP-62 NSCLC = tested on: HOP-62 NSCLC
T-47D breast = tested on: T-47D breast
786-0 renal = tested on: 786-0 renal

**Q.** What does the source list for `Cc1cccc2sc(-c3ccc(O)cc3)nc12`?
**A.** TGI (HCT-15 colon): 26 µM; TGI (RPMI-8226 leukemia): 44.2 µM; TGI (A498 renal): 20.4 µM; TGI (K-562 leukemia): > 100 µM; TGI (UO-31 renal): 26.4 µM; TGI (EKVX NSCLC): 16.8 µM; TGI (NCI-H23 lung): 31.9 µM; TGI (COLO 205 colon): 28.1 µM; TGI (SW-620 colon): 23.7 µM; TGI (M14 melanoma): 28.5 µM; TGI (MDA-MB-435): 26.8 µM; TGI (UACC-257 melanoma): 33.1 µM; TGI (ACHN renal): 33 µM; TGI (TK-10 renal): 42.1 µM; TGI (SK-MEL-2 melanoma): 33.7 µM; TGI (OVCAR-8 ovarian): 31.8 µM; TGI (NCI-H522 lung): 31.7 µM; TGI (SK-MEL-5 melanoma): 20.6 µM; TGI (OVCAR-3 ovarian): 29.8 µM; TGI (MALME-3M melanoma): 32.8 µM; TGI (SNB-19 CNS): 31.8 µM; TGI (SN12C renal): 34.3 µM; TGI (CAKI-1 renal): 30.5 µM; TGI (HL-60(TB) leukemia): 40.8 µM; TGI (OVCAR-5 ovarian): 30.2 µM; TGI (HCT-116 colon): 28.9 µM; TGI (A549 NSCLC): 34.8 µM; TGI (KM12 colon): 31.6 µM; TGI (SF-295 CNS): 29.1 µM; TGI (DU-145 prostate): 31.6 µM; TGI (OVCAR-4 ovarian): 29.5 µM; TGI (HT29 colon): 28.7 µM; TGI (LOX IMVI melanoma): 49.6 µM; TGI (CCRF-CEM leukemia): 49.6 µM; TGI (SK-MEL-28 melanoma): 33.4 µM; TGI (MCF7 breast): 26.9 µM; TGI (U251 CNS): 39.1 µM; TGI (MOLT-4 leukemia): > 100 µM; TGI (PC-3 prostate): 31.7 µM; TGI (RXF 393 renal): 32.1 µM; TGI (NCI-H226 lung): 34.6 µM; TGI (NCI-H460 lung): 33.3 µM; TGI (SF-539 CNS): 37.8 µM; TGI (SR leukemia): 47.3 µM; TGI (SK-OV-3 ovarian): 35.4 µM; TGI (IGROV1 ovarian): 29.2 µM; TGI (BT-549 breast): 25.2 µM; TGI (UACC-62 melanoma): 30.1 µM; TGI (MDA-N): 19.4 µM; TGI (SNB-75 CNS): 26.2 µM; TGI (MDA-MB-231 breast): 38.7 µM; TGI (NCI/ADR-RES ovarian): 38.9 µM; TGI (SF-268 CNS): 31.9 µM

**Q.** Which results are given for `O=C(c1ccccc1)N1CCC(CC2(c3cc4ccccc4[nH]3)OCCO2)CC1`?
**A.** TGI (HCT-15 colon): > 100 µM; TGI (RPMI-8226 leukemia): 6.36 µM; TGI (A498 renal): 62.8 µM; TGI (K-562 leukemia): 37.6 µM; TGI (UO-31 renal): > 100 µM; TGI (EKVX NSCLC): > 100 µM; TGI (NCI-H23 lung): > 100 µM; TGI (HOP-92 NSCLC): 93 µM; TGI (COLO 205 colon): 40.1 µM; TGI (SW-620 colon): > 100 µM; TGI (M14 melanoma): 39.6 µM; TGI (MDA-MB-435): 51 µM; TGI (UACC-257 melanoma): 51.9 µM; TGI (ACHN renal): > 100 µM; TGI (TK-10 renal): > 100 µM; TGI (HOP-62 NSCLC): > 100 µM; TGI (T-47D breast): > 100 µM; TGI (786-0 renal): 34.7 µM; TGI (SK-MEL-2 melanoma): 73.6 µM; TGI (OVCAR-8 ovarian): > 100 µM; TGI (SK-MEL-5 melanoma): 42.3 µM; TGI (OVCAR-3 ovarian): > 100 µM; TGI (SNB-19 CNS): > 100 µM; TGI (SN12C renal): > 100 µM; TGI (CAKI-1 renal): > 100 µM; TGI (OVCAR-5 ovarian): > 100 µM; TGI (HCT-116 colon): > 100 µM; TGI (A549 NSCLC): > 100 µM; TGI (KM12 colon): > 100 µM; TGI (SF-295 CNS): > 100 µM; TGI (DU-145 prostate): > 100 µM; TGI (OVCAR-4 ovarian): > 100 µM; TGI (HT29 colon): 85.9 µM; TGI (LOX IMVI melanoma): 35.6 µM; TGI (CCRF-CEM leukemia): > 100 µM; TGI (SK-MEL-28 melanoma): 37.4 µM; TGI (MCF7 breast): 43.9 µM; TGI (U251 CNS): > 100 µM; TGI (MOLT-4 leukemia): 58.1 µM; TGI (PC-3 prostate): > 100 µM; TGI (RXF 393 renal): > 100 µM; TGI (NCI-H226 lung): > 100 µM; TGI (NCI-H460 lung): > 100 µM; TGI (SF-539 CNS): > 100 µM; TGI (SR leukemia): > 100 µM; TGI (SK-OV-3 ovarian): > 100 µM; TGI (IGROV1 ovarian): > 100 µM; TGI (BT-549 breast): > 100 µM; TGI (UACC-62 melanoma): 39.4 µM; TGI (MDA-N): 87.5 µM; TGI (SNB-75 CNS): > 100 µM; TGI (MDA-MB-231 breast): > 100 µM; TGI (NCI/ADR-RES ovarian): > 100 µM; TGI (SF-268 CNS): > 100 µM
